# Test system: cell lines which carried a BRAF V600E mutation
# Assay: Cell growth assay (CellTiter-Glo or methylene blue) in solid cancer cell lines
# Assay type: cell-based
# Conditions: 96 hours, 0.3-10000 nM
# Experimental: In a separate experiment, Compounds 091 and 106 were tested in solid cancer cell lines from different tissue types (shown in FIG. 3B for 21 cell lines for compound 091 and 19 cell lines for compound 106). All cell lines were introduced into 96-well plates and grown in the absence or continuous presence of 0.3-10000 nM of either compound 091 or compound 106 for 96 hours. Cell growth was assessed using a CellTiter-Glo® Luminescent Cell Viability Assay (Promega) or a methylene blue assay. IC50 values were determined as the concentration of a substance which inhibits cell growth by 50% compared to untreated cell populations.
smiles,measurement,value
CCNc1cc(O)c2c(c1)/C=C/C[C@H](O)[C@H](O)C(=O)/C=C\[C@@H](C)[C@H](C)OC2=O [Compound 106],Sensitivity of BRAF V600E cell lines (concentration range),low-nM or sub-μM concentration range
